System: Female beagle dogs
Assay: dog urethral pressure profilometry (Test A)
Type: in vivo
Settings: anaesthetised female beagle dog; for Mean peak urethral pressure (PUP): i.v. infusion over 15 minutes in saline; for PUP increase vs. baseline: i.v. infusion over 15 minutes, baseline (vehicle) PUP 30 mmHg
Experimental: Female beagle dogs (10-15 kg) are anaesthetised with sodium pentobarbitone (60 mg/mL solution) administered intravenously (IV) at 0.5 ml/kg via the right cephalic vein. Immediately following induction of anaesthesia the dog is intubated and respiration supported by artificial ventilation with oxygen. End tidal CO2 is monitored continuously, using a Datex CO2/O2 monitor and maintained between 4.5 and 4.8% and body temperature maintained between 37° C. and 38° C. An incision is made in the right medial thigh and a polyethylene catheter (6F) inserted into the right femoral vein for administration of compounds and fluid maintenance; immediately venous access is achieved a bolus IV dose of α-chloralose (1% w/v) is administered at 35 mg/kg. A polyethylene catheter (4F) is inserted into the right femoral artery for blood sampling. An incision is made in the right foreleg and the brachial vein and artery isolated, maintenance of anaesthesia is achieved with α-chloralose/borax administered IV at the rate of 10 mg/kg/h via a polyethylene catheter (6F) inserted into the right brachial vein. A laparotomy is performed from the umbilicus to the top of the pubic symphysis via the midline to expose the peritoneum in order to expose the bladder. Both ureters are cannulated towards the kidneys with polyethylene catheters (6F) and urine collected externally; the bladder is catheterised through the dome with a polyethylene catheter (6F), which is in turn connected to a pressure transducer. In order to maintain constant bladder pressure at 10-15 mmHg, urine is removed and ambient temperature saline infused into the bladder. Immediately following the completion of the surgical procedures a further bolus dose of α-chloralose/borax solution is administered IV at 35 mg/kg and the animal allowed to stabilise for a period period ca. 1 hr, during which time haemodynamic and urological parameters were monitored.
Urethral tone (peak urethral pressure (PUP), functional urethral length (FUL) and closing pressure (CP)) is assessed with the aid of an 8F Millar pressure transducer (Millar Instruments, Texas, US) inserted into the bladder through the external meatus. The urethral Millar pressure transducer is then retracted along the length of the urethra (urethral pull through) at a rate of 1 cm/min enabling the determination of PUP, FUL and CP. Urethral pull throughs are repeated every 6 min until at least 4 reproducible urethral profiles are observed. Subsequently increasing concentrations of test compound or vehicle is injected intravenously utilising either a bolus dose or constant infusion and at least a further 4 urethral pull throughs carried out at each concentration investigated. Changes in the PUP, FUL or CP are indicative of compound activity on lower urinary tract function. • Investigation of bladder capacity and external urethral sphincter (EUS) function in the spontaneously hypertensive rat:
was tested in the dog urethral pressure model (Test A) described above. The compound was dissolved in saline (vehicle) and administered by i.v. infusion over a period of 15 minutes, with at least 5 urethral pressure measurements being taken at each dose level during infusion and for 15 minutes post-infusion.

CO[C@H]1CN(C(=O)[C@@H]2CN(c3cccnn3)C[C@H]2c2ccc(F)cc2F)CC[C@]1(OC)c1ccccc1 [Example 8]
Mean peak urethral pressure (PUP) (dose 1.0 mg/kg): 32 mmHg | Mean peak urethral pressure (PUP) (dose 2.0 mg/kg): 36 mmHg | Mean peak urethral pressure (PUP) (dose 3.0 mg/kg): 35 mmHg | PUP increase vs. baseline (dose 1.0 mg/kg): 7% | PUP increase vs. baseline (dose 2.0 mg/kg): 20% | PUP increase vs. baseline (dose 3.0 mg/kg): 17%

From patent US20080234280A1, “Use of Mc4 Receptor Agonist Compounds” (priority 2005, published 2008)
